Measured values taken from patent US8575107B2, “Clusterin derived peptide” (Compugen Ltd., priority 2008, dated 2013).
Where a SMILES comes first, the peptide text is derived from it.

What was measured:
A549 cells = experiment: MTT viability assay of A549 cells, CGEN-CL1 pre-incubated with helix partner; type: cell-based, human; settings: 150 nM CGEN-CL1 pre-incubated 30 min with equimolar SEQ ID NO:5
Procedure: In order to evaluate whether the two computationally identified α-helices (CGEN-CL1 (SEQ ID NO: 1) and its helix partner (SEQ ID NO: 5)) bind to each other in the Clusterin protein, a co-incubation of the two peptides was analyzed for its ability to eliminate the biological activity of CGEN-CL1.
Pre-incubation for 30 minutes of 150 nM CGEN-CL1 peptide (SEQ ID NO:1) with an equimolar concentration of the helix partner (SEQ ID NO:5) was carried out at room temperature. CGEN-CL1 peptide (SEQ ID NO:1) alone, or the helix partner (SEQ ID NO:5) alone or the pre-incubated CGEN-CL1 peptide (SEQ ID NO:1) with helix partner (SEQ ID NO:5) were used for viability assay of A549 cells, using MTT assay as described in Example 2 herein.

PC3 cells = experiment: Cell cycle analysis by propidium iodide staining (FACS) in PC3 cells; type: cell-based; settings: 300 nM or 1 μM CGEN-CL1, PI staining
Procedure: Apoptosis was analyzed either by cell cycle analysis or by PARP cleavage estimation. The amount of cleaved PARP is proportional to the amount of cells undergoing apoptosis (see for example Boulares A. H., et al., 1999, JBC 274:22932-22940).
Cell Cycle Analysis was carried out by Propidium Iodide (PI) Staining. The cells were trypsinized and suspended in DMEM medium+10% FCS. Following centrifugation (1000 rpm, 5 min) the cell pellet was suspended in PBS (1 ml). Fixation with EtOH was performed as follows: cell suspension was transferred into 2.5 ml absolute EtOH (final concentration approx. 70%) by pipetting or by vortexing the suspension at half speed while adding the EtOH) to prevent clustering of cells during the fixation. EtOH fixated cells were incubated on ice for 15 min (or overnight at −20° C.).
Propidium Iodide (PI) staining of the cells was carried out as follows: the cells were pelleted at 1500 rpm for 5 min and then suspended in 500 μl PI-solution (in PBS: 50 μg/ml PI from 50× stock solution (2.5 mg/ml); 0.1 mg/ml RNase A; 0.05% Triton X-100), following incubation for 40 min at 37° C. Then 3 ml of PBS were added, and the cells were pelleted at 1500 rpm, 5 min. The cell pellet was suspended in 500 μl PBS for flow analysis. The flow analysis was carried out using the following approximate settings (on FACSort): FL1: 570 V log; FL2: 470 V linear.

[1] = system: MCF-7 breast cancer cell lines; experiment: MTT assay, CGEN-CL1 and/or paclitaxel on MCF-7 cells; type: cell-based
Procedure: 20 μl of MTT (3-(4,5-Dimethyl-2-thiazolyl)-2,5-diphenyl-2H-tetrazolium bromide) solution (Sigma Cat#M5655, lot#085k5322, 1 gr was dissolved in 200 ml H2O and filtered, giving a final concentration of 5 mg/ml) was added to each well and incubated for 4 hours at 37° C. after which the medium was vacuumed and 100 μl of DMSO was added to each well. Absorbance was measured in an ELISA reader at 492 nm.
A549, PC3 and MCF7 cells were seeded at 6000, 8000 and 10,000 cells per well respectively in 150 μl of media (DMEM medium+5% FBS) in 96 well plates.
Paclitaxel (Sigma T7402, Lot. 036k1217, Mw 853.9, 5 mg dissolved in 585 μl DMSO to a stock concentration of 10 mM, stored at −20° C.) and/or CGEN-CL1 (1 mg dissolved in 250 μl of sodium bi-carbonate to a stock concentration of 4 mg/ml) were added to the wells in 25 μl of medium (final volume of 200 μl) as detailed in Table 3. The relative growth was normalized to controls where neither paclitaxel nor CGEN-CL1 was added to wells.
An MTT assay was performed as described above in Example 2.

[2] = system: A549 human non-small cell lung cancer cells; experiment: In vivo A549 mouse xenograft model, CGEN-CL1 with paclitaxel; parameters: species or system Balb/c Nu/Nu female mice; settings: A549 tumor bearing BALB/c nu/nu mice; CGEN-CL1 sc daily around tumor + paclitaxel 15 mg/kg IP; vs paclitaxel and vehicle
Procedure: In order to test the in-vivo activity of CGEN-CL1, Balb/c Nu/Nu female mice (10 in each group) were inoculated with 5×10^6 A549 human non-small cell lung cancer cells. Treatment was initiated when tumors reached 400-500 mm^3. One group received 15 mg/kg of paclitaxell (IP once every three days) and CGEN-CL1 [SEQ ID NO:1] (daily injected sub-cutaneously (sc) at the surrounding of the tumor) whereas the second group received paclitaxel and saline (at the same dose and route of administration). Tumor volume was measured every three days.

For CC[C@H](C)[C@H](NC(=O)[C@H](CCCNC(=N)N)NC(=O)[C@H](CC(=O)O)NC(=O)CNC(=O)[C@H](CC(N)=O)NC(=O)[C@H](CCSC)NC(=O)[C@H](Cc1c[nH]c2ccccc12)NC(=O)[C@H](Cc1ccccc1)NC(=O)[C@H](Cc1ccc(O)cc1)NC(=O)[C@H](Cc1ccccc1)NC(C)=O)C(=O)N[C@@H](CC(=O)O)C(=O)N[C@@H](CO)C(=O)N[C@@H](CC(C)C)C(=O)N[C@@H](CC(C)C)C(=O)N[C@@H](CCC(=O)O)C(=O)N[C@@H](CC(N)=O)C(=O)N[C@@H](CC(=O)O)C(=O)N[C@@H](CCCNC(=N)N)C(=O)N[C@@H](CCC(N)=O)C(=O)N[C@@H](CCC(N)=O)C(=O)N[C@H](C(N)=O)[C@@H](C)O [CGEN-CL1] (Ac-FYFWMNGDRIDSLLENDRQQT-NH2), the “biological effect (growth inhibition) of CGEN-CL1 in the presence of partner helix peptide” value (A549 cells) was “abolished”, the “percentage of apoptotic cells” value (PC3 cells) was “increased the percentage of apoptotic cells” and the “percentage of cells in cell cycle phases” value (PC3 cells) was “increased the percentage of cells in cell cycle phases G0/G1 and G2/M”. For the same compound, the “Relative Growth” value ([1]; CGEN-CL1 7.1 nM + Paclitaxel 2.25 nM) was 0.62, the “Relative Growth” value ([1]; CGEN-CL1 7.1 nM + Paclitaxel 30.00 nM) was 0.31 and the “Relative Growth” value ([1]; CGEN-CL1 7.1 nM alone) was 0.68. The “Relative Growth” value ([1]; CGEN-CL1 22.3 nM + Paclitaxel 2.25 nM) was 0.53, the “Relative Growth” value ([1]; CGEN-CL1 22.3 nM + Paclitaxel 30.00 nM) was 0.28 and the “Relative Growth” value ([1]; CGEN-CL1 22.3 nM alone) was 0.61. For the same compound, the “Relative Growth” value ([1]; CGEN-CL1 63.2 nM + Paclitaxel 2.25 nM) was 0.46, the “Relative Growth” value ([1]; CGEN-CL1 63.2 nM + Paclitaxel 30.00 nM) was 0.24 and the “Relative Growth” value ([1]; CGEN-CL1 63.2 nM alone) was 0.48. The “Relative Growth” value ([1]; CGEN-CL1 185.9 nM + Paclitaxel 2.25 nM) was 0.45, the “Relative Growth” value ([1]; CGEN-CL1 185.9 nM + Paclitaxel 30.00 nM) was 0.25 and the “Relative Growth” value ([1]; CGEN-CL1 185.9 nM alone) was 0.49. The “Relative Growth” value ([1]; CGEN-CL1 557.6 nM + Paclitaxel 2.25 nM) was 0.42, the “Relative Growth” value ([1]; CGEN-CL1 557.6 nM + Paclitaxel 30.00 nM) was 0.23 and the “Relative Growth” value ([1]; CGEN-CL1 557.6 nM alone) was 0.46. For the same compound, the “effect of timing on cell growth” value ([1]; CGEN-CL1 added 24 hours after 30 nM paclitaxel vs concomitantly) was “need for lower concentrations of CGEN-CL1 to achieve the same effect”, the “effect on growth inhibition when given in combination” value ([1]; CGEN-CL1 and paclitaxel in combination) was “synergistic effect” and the “CGEN-CL1 concentration giving further inhibition of cell proliferation (as little as)” value ([1]; at 30 nM Paclitaxel) was 7.1 nM. For the same compound, the “reduction in tumor volume” value [2] was 25-30%.
